Publication PMC6230386, “Gossypol from Cottonseeds Ameliorates Glucose Uptake by Mimicking Insulin Signaling and Improves Glucose Homeostasis in Mice with Streptozotocin-Induced Diabetes” (Oxidative Medicine and Cellular Longevity, 2018)

Target: α-glucosidase
Experiment: pNPG hydrolysis at […] nm; Lineweaver-Burk kinetics
Format: biochemical, Saccharomyces cerevisiae

## Cc1cc2c(C(C)C)c(O)c(O)c(C=O)c2c(O)c1-c1c(C)cc2c(C(C)C)c(O)c(O)c(C=O)c2c1O [GSP, gossypol]
  IC50: 670 ± 440 nM
